Columns and labels:
[1] = system: C. albicans; test: Antifungal susceptibility (microdilution MIC), C. albicans; type: cell-based, Candida albicans
Method: (§1) The antifungal activity of protein kinase inhibitors was determined using the Clinical and Laboratory Science Institute microdilution protocol M-27A2. Biofilm antifungal activity was determined using the protocol of Pierce et al. and is reported as MIC50S (Pierce et al., Nat. Protoc. 3:1494-1500 (2008)). Disk diffusion assays were performed as described previously (Roelants et al., Microbiology 150:3289-304 (2004)).
To identify PKIs that disrupt yeast cell wall integrity, a four-part screening strategy as outlined in FIG. 1A was designed. The primary screen in the approach detects molecules that cause yeast cells to lyse, a characteristic phenotype of yeast cell wall damage, by use of an assay that detects the release of adenylate kinase (AK) to the growth medium as a reporter of yeast cell lysis. Previously it was shown that the AK assay in HTS format can detect as few as 500 lysed yeast cells in a sample of 10^5 cells (Didone et al., Nat. Protocol. 5:1107-14 (2010)). PKIs that cause yeast cells lysis (hits) were then re-confirmed by AK dose-response assays and tested for in vitro antifungal activity against the human fungal pathogen C. albicans using standard microdilution susceptibility testing. Last, to select PKIs specific for the CWI signaling pathway, the set of hits were tested for their ability to block the activation of a transcriptional reporter of the CWI-signaling pathway. […]

[2] = system: C. neoformans; test: Antifungal susceptibility (microdilution MIC), C. neoformans; type: cell-based, Cryptococcus neoformans
Method: as §1
(FIG. 3A). […] Since the echinocandin class of cell wall-targeted 1,3-β-glucan synthase inhibitors is not active against C. neoformans, this represents one of the few cell wall-targeted molecules with activity against this important pathogen.

[3] = system: C. albicans cells; test: Propidium iodide uptake; type: cell-based, Candida albicans; conditions: KP-372-1 at MIC, 2 hours
Method: Bars indicate mean fold change in Miller units of β-galactosidase activity relative to logarithmic phase cells without calcofluor or PKI. Error bars indicate standard deviation of three independent trials performed in triplicate. […] The percentage of cells with PI uptake was determined by fluorescence.
A hallmark phenotype of mutations and drugs that interfere with CWI signaling is that their effects can be suppressed by the addition of osmotic support such as 1M soribitol to the culture medium. By equalizing the osmotic gradient across the plasma membrane, cell integrity is less dependent upon an intact cell wall.

[4] = system: C. albicans; test: Checkerboard interaction assay (FIC); type: cell-based, Candida albicans
Method: This assay allows one to compare the activity of a molecule alone and in combination with another molecule by generating a fractional inhibitory concentration (FIC). FIC for two drugs (A & B) is calculated as follows: […]. FIC values less than 0.5 are considered synergistic; between 0.5 and 1 are additive; between 1-2 are indifferent; and above 2 are antagonistic. […] Therefore, KP-372-1 is not synergistic with either agent.

[5] = system: S. cerevisiae pkh and ypk mutants; test: Disk diffusion assay, S. cerevisiae mutants; type: cell-based
Method: Plates were incubated at 30° C. for 3 days prior to photography.
as §1
Heterozygous diploid yeast mutants lacking one allele of the gene encoding a putative drug target are frequently hypersensitive to the effects of that drug. This is called drug-induced haploinsufficiency. Similarly, if a drug targets the products of two redundant genes, then deletion of one of those genes in a haploid yeast strain will hypersensitize the strain to that drug. […] Pkh1/2 phosphorylates two other AGC protein kinases involved in yeast cell wall integrity, Ypk1&2.

[6] = system: human protein kinases; conditions: large panel of human protein kinases; cited from earlier work

## O=C1c2ccccc2-c2nc3nnnn3nc21.O=C1c2ccccc2-c2nn3nnnc3nc21 [KP-372-1]
[1]; C. albicans
  antifungal activity (in words): highly active
[1]; C. albicans growth assay, Table 1
  MIC: 3 µg/mL
[2]
  antifungal activity (in words): highly active
[3]; 1M sorbitol-supplemented YPD
  cells stained by propidium iodide relative to YPD: five-fold fewer cells were stained
[3]; 37° C., YPD
  percentage of cells stained by propidium iodide: 36%
[4]; combination with caspofungin
  FIC (fractional inhibitory concentration): 0.5
[4]; combination with fluconazole
  FIC (fractional inhibitory concentration): 1.0
[5]; S. cerevisiae pkh2D mutant, compared with wild type or pkh1D
  zone of inhibition versus wild type: larger zone of inhibition
[5]; S. cerevisiae ypk1D and ypk2D mutants
  sensitivity versus wild type: as sensitive to KP-372-1 as wild type
[6]
  selectivity for a limited number of human kinases: at least 10 fold

— US8889680B2, “Treatment or prevention of fungal infections with PDK1 inhibitors” (priority 2010, dated 2014)
